Experimental data reported in patent US12441743B2, “Spiro aromatic ring compound and use thereof” (Etern Biopharma (Shanghai) Co., Ltd., priority 2018, dated 2025).

Key:
[1] = test system: MV4-11 cells; assay: MV4-11 cell proliferation inhibition experiment (CellTiter-Glo); type: cell-based; settings: Homo sapiens; MV4-11 cells, 72 h, CellTiter-Glo; read-out: Cell proliferation inhibition activity
Description: The number of living cells in the culture was determined by quantitative determination of intracellular ATP using CellTiter-Glo® Luminescent Cell Viability Assay kit.
In the first step, MV4-11 cells were inoculated into 96-well plates with a density of 2500 cells per well and a volume of 100 μL per well. The plates were placed in 37° C., 5% carbon dioxide incubator overnight.
In the second step, cells were treated with compounds. The compounds to be tested were diluted 3 times, and 8 concentration gradients were set up. Each well was added with a certain volume of DMSO or the compound to be tested, and each concentration was tested in 2 replicates, and the final concentration of DMSO was 0.5%. The plates were placed in 37° C., 5% carbon dioxide incubator for 72 h.
In the third step, cell viability of the control groups and the treatment groups was determined using CellTiter-Glo® Luminescent Cell Viability Assay kit (Promega, G7570). Each well was added with 50 uL CellTiter-Glo. The culture was mixed well, and incubated at room temperature for 10 min. Signals were read using EnSpire (Perkin Elmer). Inhibition percentages (%) were calculated by the following formula:
Inhibition percentage (%)=(1−signal value of compound treatment group/signal value of DMSO treatment group)*100.

[2] = Pharmacokinetics experiment, intragastric single dose; type: in vivo; settings: mouse, plasma, male mice, oral administration dosage 5 mg/Kg; for half-life: read-out: Half-life T1/2 (converted); for Cmax: read-out: Maximum plasma concentration Cmax; for AUC: read-out: Plasma exposure AUC
Description: Pharmacokinetics of the compound of the disclosure was determined. The following method was used to determine the pharmacokinetic parameters of the compound of the disclosure. Healthy male adult mice were used in the study. Each group was intragastrically administered with a single dose of 5-100 mg/kg. Fasting lasted from 10 hours before administration to 4 hours after administration. Blood samples were collected at different time points after administration and the compound content in plasma was determined by LC-MS/MS. The relationship between plasma concentration and time was analyzed by professional software (winnonlin), and the pharmacokinetic parameters of the compounds were calculated. According to Table 3, the compounds of the disclosure have excellent pharmacokinetic properties.

[3] = molecular target: T1, SHP2 E76A protein (Homo sapiens, UniProt Q06124, E76A); assay: SHP2 enzyme activity inhibition test (DiFMUP substrate, fluorescence); type: biochemical; settings: 50 ng SHP2 E76A, 20 min with compound, then 10 uM DiFMUP 20 min at room temperature
T1 sequence (Q06124 1-593 E76A): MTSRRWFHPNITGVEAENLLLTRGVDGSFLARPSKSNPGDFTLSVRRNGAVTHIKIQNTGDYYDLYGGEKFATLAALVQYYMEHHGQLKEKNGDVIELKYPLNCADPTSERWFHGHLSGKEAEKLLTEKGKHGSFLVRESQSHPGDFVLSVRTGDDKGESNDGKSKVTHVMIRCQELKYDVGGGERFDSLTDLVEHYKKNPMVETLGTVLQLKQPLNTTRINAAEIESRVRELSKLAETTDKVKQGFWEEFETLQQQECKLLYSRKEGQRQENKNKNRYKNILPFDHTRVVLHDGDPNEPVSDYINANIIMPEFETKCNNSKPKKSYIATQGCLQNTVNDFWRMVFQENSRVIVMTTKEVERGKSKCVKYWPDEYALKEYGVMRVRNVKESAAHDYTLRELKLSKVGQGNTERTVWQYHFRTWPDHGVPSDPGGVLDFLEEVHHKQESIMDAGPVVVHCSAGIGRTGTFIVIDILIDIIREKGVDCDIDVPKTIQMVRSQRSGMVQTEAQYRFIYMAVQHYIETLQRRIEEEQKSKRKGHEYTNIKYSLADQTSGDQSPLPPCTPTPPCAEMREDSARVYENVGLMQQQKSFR

Compound	IC50 [1]	bioavailability [2]	half-life [2]	Cmax [2]	AUC [2]	IC50 [3]
Nc1nccc(Sc2cnc(N3CCC4(CC3)Cc3cccnc3[C@H]4N)n3ccnc23)c1Cl [Compound 10, (S)-1′-(8-((2-amino-3-chloropyridin-4-yl)thio)imidazo[1,2-c]pyrimidin-5-yl)-5,7-dihydrospiro[cyclopenta[b]pyridine-6,4′-piperidine]-7-amine]	7 nM	51%	3.8 h	5 µM	48 µM·h	3 nM
Nc1nccc(Sc2cnc(N3CCC4(CC3)Cc3nccnc3[C@H]4N)n3ccnc23)c1Cl [Compound 18, (S)-1′-(8-((2-amino-3-chloropyridin-4-yl)thio)imidazo[1,2-c]pyrimidin-5-yl)-5,7-dihydrospiro[cyclopenta[b]pyrazine-6,4′-piperidine]-5-amine]	42 nM	72%	3.5 h	6.5 µM	40 µM·h	7 nM
